Experiments:
[1] = target: PRMT5/MEP50 complex (Homo sapiens, UniProt O14744); experiment: Inhibition of recombinant human fetal brain FLAG-tagged PRMT5/full length human testis 6His-tagged MEP50 expressed in baculovirus infected insect Sf9 cells using human histone H4 (1 to 15 residues) as substrate preincubated for 30 mins followed by [3H]-SAM addition
[2] = Antiproliferative activity against human Z138 cells assessed as inhibition of cell viability after 5 days by Cell-Titer Glo assay; assay type: functional, cell-based; conditions: Z-138, 120 h
[3] = target: Protein arginine N-methyltransferase 5 (Homo sapiens, UniProt O14744); experiment: Inhibition of PRMT5 in human Z138 cells assessed as decrease in di-methyl arginine levels after 96 hrs by Western blot method; assay type: cell-based
Sequence of Protein arginine N-methyltransferase 5 (O14744 whole entry): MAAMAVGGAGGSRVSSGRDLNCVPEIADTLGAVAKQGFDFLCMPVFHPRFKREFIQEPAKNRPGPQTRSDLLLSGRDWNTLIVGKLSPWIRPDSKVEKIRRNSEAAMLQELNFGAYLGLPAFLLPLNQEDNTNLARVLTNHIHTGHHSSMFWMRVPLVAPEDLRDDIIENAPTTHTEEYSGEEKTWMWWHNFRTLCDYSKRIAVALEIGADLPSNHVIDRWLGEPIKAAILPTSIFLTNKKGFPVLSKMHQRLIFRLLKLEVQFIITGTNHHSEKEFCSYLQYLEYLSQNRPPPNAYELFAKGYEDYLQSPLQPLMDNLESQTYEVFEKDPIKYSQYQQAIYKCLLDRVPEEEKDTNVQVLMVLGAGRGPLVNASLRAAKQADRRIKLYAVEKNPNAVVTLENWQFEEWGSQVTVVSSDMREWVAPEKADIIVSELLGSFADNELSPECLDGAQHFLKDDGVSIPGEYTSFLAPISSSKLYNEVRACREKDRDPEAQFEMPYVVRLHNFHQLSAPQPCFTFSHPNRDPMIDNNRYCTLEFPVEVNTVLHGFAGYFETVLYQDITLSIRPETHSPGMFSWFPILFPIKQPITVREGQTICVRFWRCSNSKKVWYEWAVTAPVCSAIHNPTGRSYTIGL

Sequence of PRMT5/MEP50 complex (O14744 whole entry, the tested form may be a part): as the sequence (O14744 whole entry) above
Sequence of PRMT5/MEP50 complex (Q9BQA1 whole entry, further chain, the tested form may be a part): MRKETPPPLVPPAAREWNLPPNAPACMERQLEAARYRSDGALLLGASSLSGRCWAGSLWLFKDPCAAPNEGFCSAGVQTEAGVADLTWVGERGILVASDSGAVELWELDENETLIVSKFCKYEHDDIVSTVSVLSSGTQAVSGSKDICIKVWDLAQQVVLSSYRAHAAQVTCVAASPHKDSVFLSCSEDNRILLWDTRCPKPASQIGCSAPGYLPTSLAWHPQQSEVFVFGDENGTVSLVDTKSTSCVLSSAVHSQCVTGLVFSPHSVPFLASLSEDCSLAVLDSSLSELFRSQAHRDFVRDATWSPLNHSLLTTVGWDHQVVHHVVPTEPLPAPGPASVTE

Row | Structure (SMILES) | IC50 [1] [nM] | EC50 [2] [nM] | EC50 [3] [nM]
1 | OC(COCc1ccccc1)CN1CCc2ccccc2C1 (stereo not given) | 10000 to 40000 | > 40000 | –
2 | OC(COc1ccc2c(c1)OCO2)CN1CCc2ccccc2C1 (stereo not given) | 1000 to 10000 | > 20000 | –
3 | OC(COCC1COc2ccccc2O1)CN1CCc2ccccc2C1 (stereo not given) | 101 to 40000 | > 40000 | –
4 | OC(COc1ccc(C2CCNCC2)cc1)CN1CCc2ccccc2C1 (stereo not given) | 1000 to 10000 | 10000 to 40000 | –
5 | OC(COc1cccc(CNC2CCCC2)c1)CN1CCc2ccccc2C1 (stereo not given) | 101 to 1000 | 10000 to 40000 | –
6 | CCN(c1cccc(C(=O)NCC(O)CN2CCc3ccccc3C2)c1)C1CCOCC1 (stereo not given) | 101 to 1000 | – | 101 to 1000
7 | CC(=O)Nc1ccc(OCC(=O)NCC(O)CN2CCc3ccccc3C2)cc1 (stereo not given) | 101 to 1000 | > 20000 | 101 to 1000
8 | CN1CCCCC1COCC(O)CN1CCc2ccccc2C1 (stereo not given) | > 40000 | > 40000 | –
9 | CCC1c2ccccc2CCN1CC(O)COc1cccc(-c2ccc3ncn(C)c3c2)c1 (stereo not given) | 101 to 1000 | > 20000 | –
10 | COc1cccc(OCC(=O)NCC(O)CN2CCc3ccccc3C2)c1 (stereo not given) | < 100 | 1000 to 10000 | 101 to 1000
11 | CC(Oc1ccccc1)C(=O)NCC(O)CN1CCc2ccccc2C1 (stereo not given) | < 100 | 1000 to 10000 | 101 to 1000
12 | O=C(COc1ccccc1)NCC(O)CN1CCc2ccccc2C1 (stereo not given) | 101 to 1000 | – | 101 to 1000
13 | COc1ccccc1OCC(=O)NCC(O)CN1CCc2ccccc2C1 (stereo not given) | < 100 | 1000 to 10000 | 101 to 1000
14 | N#Cc1ccc(OCC(=O)NCC(O)CN2CCc3ccccc3C2)cc1 (stereo not given) | 101 to 1000 | 10000 to 50000 | 101 to 1000
15 | OC(COCC1CCCCC1)CN1CCc2ccccc2C1 (stereo not given) | 1000 to 10000 | > 40000 | –
16 | Cn1cnc2ccc(OCC(=O)NCC(O)CN3CCc4ccccc4C3)cc21 (stereo not given) | – | 10000 to 50000 | 101 to 1000
17 | OC(COc1cccc(CNC2CCCC2)c1)CN1Cc2ccccc2C1 (stereo not given) | 1000 to 10000 | 10000 to 50000 | –
18 | CN1CCC(OCC(O)CN2CCc3ccccc3C2)CC1 (stereo not given) | > 40000 | > 40000 | –
19 | O=C(COc1ccccc1S(=O)(=O)N1CCOCC1)NCC(O)CN1CCc2ccccc2C1 (stereo not given) | < 100 | – | 101 to 1000
20 | O=C(COc1ccccc1N1CCOCC1)NC[C@@H](O)CN1CCc2ccccc2C1 | 101 to 1000 | – | 101 to 1000
21 | O=C(CNc1ccccc1)NCC(O)CN1CCc2ccccc2C1 (stereo not given) | 1000 to 10000 | > 20000 | 1000 to 10000
22 | CC(C)(C)OC(=O)N1CCC(OCC(O)CN2CCc3ccccc3C2)CC1 (stereo not given) | 1000 to 10000 | > 40000 | –

Row | Structure (SMILES) | IC50 [1] [nM] | EC50 [2] [nM] | EC50 [3] [nM]
23 | COc1cccc2c1CN(CC(O)COc1cccc(CNC3CCCC3)c1)CC2 (stereo not given) | 10000 to 40000 | 10000 to 40000 | –
24 | O=C(NCC(O)CN1Cc2ccccc2C1)c1cccc(NC2CCOCC2)c1 (stereo not given) | 101 to 1000 | – | 101 to 1000
25 | N#CCc1cccc(-c2cccc(OCC(O)CN3CCc4ccccc4C3)c2)c1 (stereo not given) | 101 to 1000 | – | 1000 to 10000
26 | CC(OCC(O)CN1CCc2ccccc2C1)c1cccnc1 (stereo not given) | 10000 to 40000 | > 40000 | –
27 | N#Cc1ccccc1OCC(=O)NCC(O)CN1CCc2ccccc2C1 (stereo not given) | 101 to 1000 | 10000 to 50000 | 101 to 1000
28 | CN1CCN(c2ccccc2OCC(=O)NC[C@@H](O)CN2CCc3ccccc3C2)CC1 | 1000 to 10000 | – | 1000 to 10000
29 | O=C(COc1cccc2cccnc12)NCC(O)CN1CCc2ccccc2C1 (stereo not given) | < 100 | 101 to 1000 | < 100
30 | COc1cc(Cl)cc(-c2cccc(OCC(O)CN3CCc4ccccc4C3)c2)c1 (stereo not given) | 101 to 1000 | – | > 20000
31 | OC(COC1Cc2ccccc2C1)CN1CCc2ccccc2C1 (stereo not given) | 1000 to 10000 | > 40000 | –
32 | CC(C)(C)OC(=O)Nc1cccc(C(=O)NCC(O)CN2Cc3ccccc3C2)c1 (stereo not given) | 101 to 1000 | – | 1000 to 10000
33 | Cc1ccccc1OCC(=O)NCC(O)CN1CCc2ccccc2C1 (stereo not given) | 101 to 1000 | 1000 to 10000 | 101 to 1000
34 | O=C(NC[C@@H](O)CN1CCc2ccccc2C1)Oc1ccccc1 | < 100 | – | 1000 to 10000
35 | O=C(COc1cccc(F)c1)NCC(O)CN1CCc2ccccc2C1 (stereo not given) | 101 to 1000 | 10000 to 50000 | 101 to 1000
36 | CS(=O)(=O)c1ccccc1OCC(=O)NCC(O)CN1Cc2ccccc2C1 (stereo not given) | 101 to 1000 | – | 101 to 1000
37 | O[C@@H](COc1cccc(CNC2CCCC2)c1)CN1CCc2ccccc2C1 | 1000 to 10000 | 10000 to 40000 | –
38 | CC(C)(C)OC(=O)N1CCCC(OCC(O)CN2CCc3ccccc3C2)C1 (stereo not given) | 1000 to 10000 | > 40000 | –
39 | COc1cccc(COCC(O)CN2CCc3ccccc3C2)c1 (stereo not given) | 1000 to 10000 | > 40000 | –
40 | Cn1cnc2ccc(NCC(=O)NCC(O)CN3CCc4ccccc4C3)cc21 (stereo not given) | 101 to 1000 | – | 1000 to 10000
41 | CN(C)CCOc1ccccc1OCC(=O)NC[C@@H](O)CN1CCc2ccccc2C1 | 101 to 1000 | – | 1000 to 10000
42 | O=S1(=O)CCN(c2ccc(OCC(O)CN3CCc4ccccc4C3)cc2)CC1 (stereo not given) | 1000 to 10000 | > 20000 | –
43 | O=c1cc(-c2ccccc2)ccn1C[C@@H](O)CN1CCc2ccccc2C1 | – | – | > 50000
